Tested on: PMA-induced release of TNFα from U-937 cells
Assay: ELISA-based TNFα release assay, PMA-stimulated U-937 cells
Type: cell-based
Details: Homo sapiens, U-937, 1 h, Batimastat 10 μM, PMA 25 ng/ml
Procedure: In contrast to Example 14 and 17, where the inhibitory effects of the antibodies of the present disclosure on LPS-induced release of endogenous TNFα from human THP-1 cells were tested, this analysis was conducted with recombinantly produced murine antibodies of the present disclosure to verify their inhibitory effects on PMA-induced release of endogenous TNFα from human monocytic U-937 cells.
In brief, on day 1, Nunc black MaxiSorp® 96-well plates (Thermo Fisher Scientific, USA) were coated overnight with 100 μl per well of mouse anti-human TNFα capture antibody (provided as part of the DuoSet ELISA kit) at 4 μg/ml TBS at 4° C. On day 2, the capture antibody solution was removed and MaxiSorp® plates were blocked with 300 μl per well of TBS, 1% BSA at room temperature for 1-2 hours. […] Using an infinite M1000 (Tecan Group, Switzerland) microplate reader, the fluorescence of each well was collected at an excitation wavelength of 435 nm and an emission wavelength of 555 nm. […]

Question: What does the source list for `CNC(=O)[C@H](Cc1ccccc1)NC(=O)[C@H](CC(C)C)[C@H](CSc1cccs1)C(=O)NO` [Batimastat]?
Answer: inhibition at 10 µM (murine (m) and chimeric (ch) antibodies 3 μg/ml): 98.7%; inhibition at 10 µM (recombinant murine antibodies 1 μg/ml): 100%
